Measurements: patent US11491120B2, “Pharmacological prophylactics against stress-induced affective disorders in females” (The Trustees of Columbia University in the City of New York, priority 2017, dated 2022)
Entries after “also recorded” stand apart in the source; their conditions may differ.

System: female 129S6/SvEv mice
Experiment: Contextual fear conditioning (CFC), 3-shock, freezing in training and context re-exposure
Conditions: for p, Sal vs. drug, Dunnett test: Freezing (Average), Contextual Fear Conditioning Re-exposure / p, Freezing (min 1-5) / p, Freezing (min 2) / p, Freezing (min 3) / p, Freezing (min 4) / p, Freezing (min 5): 1 week prophylactic drug
[1] = 0.025 mg/kg, 24 hours before CFC, female mice
[2] = Contextual Fear Conditioning Re-exposure, Dunnett test Sal vs. drug (0.025)
[3] = Contextual Fear Conditioning Re-exposure, Dunnett test Sal vs. drug (0.075)
[4] = Contextual Fear Conditioning Re-exposure, Dunnett test Sal vs. drug (0.1)
[5] = Contextual Fear Conditioning Re-exposure, Dunnett test Sal vs. drug (0.3)
[6] = Contextual Fear Conditioning Re-exposure, Dunnett test Sal vs. drug (2.5)
[7] = Contextual Fear Conditioning Re-exposure, Dunnett test Sal vs. drug (10)
[8] = Contextual Fear Conditioning Training, Dunnett test Sal vs. drug (0.025)
[9] = Contextual Fear Conditioning Training, Dunnett test Sal vs. drug (0.075)
[10] = Contextual Fear Conditioning Training, Dunnett test Sal vs. drug (0.1)
[11] = Contextual Fear Conditioning Training, Dunnett test Sal vs. drug (0.3)
[12] = Contextual Fear Conditioning Training, Dunnett test Sal vs. drug (2.5)

## N[C@@]1(c2ccccc2Cl)CCC[C@@H](O)C1=O [(2R,6R)-HNK, (2R,6R)-hydroxynorketamine]
0.025 mg/kg
  p, Sal vs. drug, Dunnett test: Freezing (Average), Contextual Fear Conditioning Re-exposure: 0.4341
[1]
  Freezing / fear expression during re-exposure vs saline: comparable levels of freezing
  Freezing / fear learning during CFC training vs saline: comparable levels of freezing; also recorded: did not alter fear learning
0.075 mg/kg
  p, Sal vs. drug, Dunnett test: Freezing (Average), Contextual Fear Conditioning Re-exposure: 0.9955
0.1 mg/kg
  p, Sal vs. drug, Dunnett test: Freezing (Average), Contextual Fear Conditioning Re-exposure: 0.9257
0.3 mg/kg
  p, Sal vs. drug, Dunnett test: Freezing (Average), Contextual Fear Conditioning Re-exposure: 0.9993
2.5 mg/kg
  p, Sal vs. drug, Dunnett test: Freezing (Average), Contextual Fear Conditioning Re-exposure: 0.6274
10 mg/kg, 1 week before CFC, female mice
  Freezing during 3-shock CFC training vs saline: significantly lowered freezing
10 mg/kg
  p, Sal vs. drug, Dunnett test: Freezing (Average), Contextual Fear Conditioning Re-exposure: 0.9991
3 days before CFC, female mice
  Freezing during context re-exposure vs saline: do not affect freezing during re-exposure
[2]
  p, Freezing (min 1-5): 0.4341
  p, Freezing (min 2): 0.1669
  p, Freezing (min 3): 0.8139
  p, Freezing (min 4): 0.6797
  p, Freezing (min 5): 0.7607
[3]
  p, Freezing (min 1-5): 0.9955
  p, Freezing (min 2): >0.9999
  p, Freezing (min 3): 0.9009
  p, Freezing (min 4): 0.9994
  p, Freezing (min 5): 0.9990
[4]
  p, Freezing (min 1-5): 0.9257
  p, Freezing (min 2): 0.9990
  p, Freezing (min 3): 0.9333
  p, Freezing (min 4): 0.9679
  p, Freezing (min 5): 0.8119
[5]
  p, Freezing (min 1-5): 0.9993
  p, Freezing (min 2): 0.9998
  p, Freezing (min 3): 0.9954
  p, Freezing (min 4): 0.9994
  p, Freezing (min 5): 0.9991
[6]
  p, Freezing (min 1-5): 0.6274
  p, Freezing (min 2): 0.2365
  p, Freezing (min 3): 0.4707
  p, Freezing (min 4): 0.3440
  p, Freezing (min 5): 0.9997
[7]
  p, Freezing (min 1-5): 0.9991
  p, Freezing (min 2): 0.9994
  p, Freezing (min 3): 0.9074
  p, Freezing (min 4): 0.9994
  p, Freezing (min 5): 0.9003
[8]
  p, Freezing (min 1-5): 0.7272
  p, Freezing (min 4): 0.9640
  p, Freezing (min 5): 0.9668
[9]
  p, Freezing (min 1-5): 0.9917
  p, Freezing (min 4): 0.9911
  p, Freezing (min 5): 0.9993
[10]
  p, Freezing (min 1-5): 0.6657
  p, Freezing (min 4): >0.9999
  p, Freezing (min 5): 0.2588
[11]
  p, Freezing (min 1-5): 0.9992
  p, Freezing (min 4): 0.9477
  p, Freezing (min 5): >0.9999
[12]
  p, Freezing (min 1-5): 0.9993
  p, Freezing (min 4): 0.9991
  p, Freezing (min 5): 0.9997
